Test results taken from US20080031968A1, “Methods for increasing cellular energy expenditure” (priority 2005, published 2008).

Legend:
[1] = tested on: mouse SREBP-1c promoter; test: SREBP-1c promoter luciferase reporter assay in McA-RH7777 cells; type: cell-based; details: McA-RH7777 rat hepatoma cells, LXRα transfection and/or LXR and RXR agonists
Description: The LXR response elements in pSREBP-1c324-Luc were mutated for promoter analysis using the Quick Change Site-Directed Mutagenesis Kit (Stratagene, La Jolla, Calif., USA).
The rat hepatoma cell line McA-RH7777 was obtained from ATCC (Manassas, Va., USA). […] Transfections were performed in 96-well plates using Lipofectamine 2000 (Invitrogen, Cergy Pontoise, France). Each well contained 64 ng luciferase reporter and 4 ng of β-galactosidase expression plasmid. We transfected 16 ng RXRα, 16 ng LXRα, 16 ng LRH-1, 32 ng SHP expression plasmids, or the corresponding empty expression vectors. After 6 hours of incubation with the DNA-lipofectamine complexes, the transfection medium was exchanged for medium with or without the indicated ligands. Ligands for LXR and RXR were dissolved in ethanol or DMSO and added to the cells in DMEM supplemented with 10% lipoprotein-deficient serum. To suppress SREBP-1c activation by processing, leading to feed-forward induction of SREBP-1c expression, the medium used for the SREBP-1c promoter study was also supplemented with 10 μg/ml cholesterol and 1 μg/ml 25-hydroxycholesterol. Luciferase measurements were normalized to β-galactosidase activity.

[2] = biological target: T1, TGR5 (Homo sapiens, UniProt Q8TDU6); test: cAMP response element (CRE)-luciferase reporter assay with TGR5; type: cell-based; details: cells co-transfected with TGR5 expression plasmid and CRE-driven luciferase reporter
T1 construct: expressed in transfected cells
T1 sequence (Q8TDU6 1-330): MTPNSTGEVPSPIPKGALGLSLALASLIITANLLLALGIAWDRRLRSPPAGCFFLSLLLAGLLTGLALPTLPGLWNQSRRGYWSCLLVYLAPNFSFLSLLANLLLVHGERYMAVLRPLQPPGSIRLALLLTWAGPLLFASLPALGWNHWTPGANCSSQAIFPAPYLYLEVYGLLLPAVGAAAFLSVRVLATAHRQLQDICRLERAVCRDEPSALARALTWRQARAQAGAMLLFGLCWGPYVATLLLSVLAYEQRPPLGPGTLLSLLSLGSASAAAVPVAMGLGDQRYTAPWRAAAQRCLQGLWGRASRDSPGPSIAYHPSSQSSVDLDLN
Description: Since a synthetic FXRα agonist was unable to phenocopy the effects of BAs on energy expenditure, we focused our attention on FXRα-independent signaling events stimulated by BAs. […] We used a cAMP response element (CRE)-luciferase reporter assay to confirm that TGR5 is a BA receptor.
We used quantitative RT-PCR to measure the expression of D2 and TGR5 mRNAs in selected mouse tissues.

[3] = tested on: BAT of C57BL/6J mice; test: BAT gene expression by microarray and Q-RT-PCR; type: in vivo, mouse
Description: For microarray analysis, RNA was isolated from BAT using the RNeasy mini kit (QIAGEN, Courtaboeuf, France). Equal amounts of RNA from mice in each group were pooled (n=3 or 4 mice) and used for cDNA synthesis. After second-strand cDNA synthesis (Life Technologies, Cergy Pontoise, France), in vitro transcription was performed with biotinylated UTP and CTP (Enzo Diagnostics, Farmingdale, N.Y.). Fragmented cRNA samples were hybridized to the Affymetrix MOE430A microarray. The raw data was analyzed using the Microarray Suite Software version 5.0 (MAS5.0, Affymetrix, Santa Clara, Calif.).

C[C@H](CCC(=O)O)[C@H]1CC[C@H]2[C@@H]3[C@H](O)C[C@@H]4C[C@H](O)CC[C@]4(C)[C@H]3C[C@H](O)[C@]12C [CA, cholic acid]
increase of SREBP-1c promoter activity [1]: attenuated
luciferase expression [2]: increased luciferase expression in a dose-dependent manner
expression of PGC-1α, PGC-1β, UCP-1, UCP-3, ACO, mCPT-I and D2 in BAT ([3]; C57BL/6J mice fed 47 days, diet mixed with CA, Q-RT-PCR): significantly increased
genes involved in control of energy expenditure incl. D2 in BAT (microarray) ([3]; high fat diet mixed with CA or CDCA for 9 days): upregulated
